Measured values from PubChem BioAssay (NCI).
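Compound exposure: 48 hours, 5 concentrations, 96-well plates. The concentration for 50% growth inhibition is given as GI50. TGI denotes the concentration required for complete inhibition of growth.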

Legend:
Test in all cases: NCI anticancer screen, dose series, 48 h
CAKI-1 renal = test system: CAKI-1 renal
HOP-92 NSCLC = test system: HOP-92 NSCLC
KM12 colon = test system: KM12 colon
M14 melanoma = test system: M14 melanoma
NCI-H226 lung = test system: NCI-H226 lung
PC-3 prostate = test system: PC-3 prostate
SK-MEL-28 melanoma = test system: SK-MEL-28 melanoma
SNB-75 CNS = test system: SNB-75 CNS
SR leukemia = test system: SR leukemia
UACC-62 melanoma = test system: UACC-62 melanoma

| Structure (SMILES) | GI50 (CAKI-1 renal) [µM] | TGI (CAKI-1 renal) [µM] | GI50 (HOP-92 NSCLC) [µM] | TGI (HOP-92 NSCLC) [µM] | GI50 (KM12 colon) [µM] | TGI (KM12 colon) [µM] | GI50 (M14 melanoma) [µM] | TGI (M14 melanoma) [µM] | GI50 (NCI-H226 lung) [µM] | TGI (NCI-H226 lung) [µM] | GI50 (PC-3 prostate) [µM] | TGI (PC-3 prostate) [µM] | GI50 (SK-MEL-28 melanoma) [µM] | TGI (SK-MEL-28 melanoma) [µM] | GI50 (SNB-75 CNS) [µM] | TGI (SNB-75 CNS) [µM] | GI50 (SR leukemia) [µM] | TGI (SR leukemia) [µM] | GI50 (UACC-62 melanoma) [µM] | TGI (UACC-62 melanoma) [µM] |
| --- | --- | --- | --- | --- | --- | --- | --- | --- | --- | --- | --- | --- | --- | --- | --- | --- | --- | --- | --- | --- |
| [Cu+2].[NH-]C(CC(=O)O)C(=O)O.[NH-]C(CC(=O)O)C(=O)O (stereo unspecified) | > 100 | > 100 | > 100 | > 100 | > 100 | > 100 | > 100 | > 100 | > 100 | > 100 | > 100 | > 100 | > 100 | > 100 | > 100 | > 100 | > 100 | > 100 | > 100 | > 100 |
| O=c1oc2ccc(Br)cc2c(=O)n1-c1ccc(Cl)cc1F | 0.821 | 4.37 | 0.179 | 0.618 | 2.03 | 4.87 | 0.925 | 6.24 | 1.43 | 5.11 | 1.87 | 7.81 | 0.522 | 3.03 | 0.572 | 2.8 | 0.798 | > 100 | 0.33 | 1.41 |
| COc1ccc2nc3cccc([N+](=O)[O-])c3c(NC(C)CN(C)C)c2c1 (stereo unspecified) | 2.52 | 7.19 | 2.38 | 5.68 | 2.18 | 6.65 | 1.41 | 2.8 | 1.75 | 4.1 | – | 6.85 | 3.05 | – | 2.25 | 5.55 | 2.16 | – | 1.46 | 3.05 |
| N#CC1=C(N)Oc2c(sc3c(Br)cccc23)C1c1ccc(Cl)cc1 (stereo unspecified) | 0.477 | 16.3 | 2 | 7.29 | 0.389 | 6.2 | 0.45 | 2.65 | 1.49 | 10.4 | 0.56 | 5.55 | 1.15 | 4.45 | 0.478 | 9.41 | 0.342 | 2.69 | 0.435 | 8.35 |
| NC(N)=Nc1ccc(/C=C2\C=Cc3ccccc32)cc1 | 2.49 | 8.67 | 1.44 | 4.6 | 1.85 | 3.51 | 2.05 | 5.44 | 5.73 | 31.1 | 3.31 | 14.8 | 4.38 | 17.9 | 2.22 | 8.99 | 2.5 | 6.85 | 2.84 | 9.94 |
| O=[N+]([O-])c1oc2ccc3ccccc3c2c1CCO | – | 8.58 | – | 35 | – | 31.5 | – | 5.24 | – | 30.1 | – | 87.7 | – | 3.27 | – | 16.7 | – | 3.23 | – | 12.5 |
| CCCN(CCC)c1ccc(C=O)c(C)c1 | 33.7 | > 100 | 16.4 | 64.7 | 44.7 | > 100 | 44.8 | > 100 | 11.3 | > 71.5 | 32.7 | > 100 | 68.2 | > 100 | 22.3 | 97.7 | 40.3 | > 100 | 28.4 | > 100 |
| Cc1sc2c(c1C)C(c1ccc(Cl)cc1)=N[C@@H](CC(=O)NCCCN1CCN(C)CC1)c1nnc(C)n1-2 | 0.684 | > 100 | 0.032 | > 25.2 | 19.6 | > 100 | 1.24 | > 100 | – | > 100 | 1.05 | > 100 | > 30 | > 100 | < 0.0106 | 0.16 | 0.108 | > 100 | 0.214 | > 100 |
